Data: patent publication US20140330261A1, “CATHETER FOR PERFORMING PHOTODYNAMIC ABLATION OF CARDIAC MUSCLE TISSUE VIA PHOTOCHEMICAL REACTION” (KEIO UNIVERSITY, priority 2010, published 2014)

Columns and labels:
[1] = system: right ventricular tissue isolated from a Wistar rat; assay: Electrical conduction blocking via photodynamic therapy in cardiac muscle tissue extirpated from a rat (ex vivo); settings: 4.3 μg/ml in Tyrode's perfusion fluid for 2 hours; 670.8 nm laser, 150 mW/cm^2, 3.5 J/cm^2; 5 minutes after photodynamic therapy
Description: The right ventricular tissue isolated from a Wistar rat was used as a sample. Talaporfin sodium was used as a photosensitive pigment. Talaporfin sodium was dissolved in a perfusion fluid at 4.3 μg/ml. Tyrode's solutions were used as perfusion fluids ([…] 37° C.). A semiconductor laser with a central wavelength of 670.8 nm was used as an excitation light source, and the irradiation was carried out at 150 mW/cm^2 and 3.5 J/cm^2. An experiment of electric conduction blocking in the cardiac muscle was carried out by the following procedures. 1. The heart was extirpated under deep anesthesia and the right ventricular wall was excised. 2. The excised tissue was subjected to perfusion in a Tyrode's solution comprising talaporfin sodium dissolved therein for 2 hours. 3. Three bipolar electrodes were positioned in cardiac muscle tissue. One such electrode was used for electrical stimulation (for conductance) and the two other electrodes were used for potential measurement (A and B). 4. A band-like laser beam was irradiated to the region between electrodes for potential measurement to perform photodynamic therapy. 5. Potentials at the electrodes for potential measurement A and B were measured during laser irradiation.

[2] = system: cardiac muscle tissue of the left auricle; assay: Acute experiment (open-heart surgery) using swine: verification of immediate conduction block by photodynamic therapy; format: in vivo; settings: 10 mg/kg intravenously, irradiation 30 minutes after administration, 663 nm, 5.2 W/cm^2, 208 J/cm^2, irradiation line approximately 30 mm
Description: Left auricular tissue obtained from a swine (body weight: 15.4 kg) was used as a sample. Talaporfin sodium was used as a photosensitive dye, and it was administered intravenously to the swine at 10 mg/kg of the body weight. The duration until light irradiation after the administration of the photosensitive dye was 30 minutes. Light irradiation was carried out using a semiconductor laser with a central wavelength of 663 nm at a power density of 5.2 W/cm^2, an energy density of 208 J/cm^2, and a spot size of 7 mm Φ. The experiment for verification of immediate conduction block using swine was carried out in accordance with the following procedure. 1. A swine was subjected to open-heart surgery under deep anesthesia and the left auricle was exposed. 2. Three bipolar electrodes were positioned in cardiac muscle tissue of the left auricle. One such electrode was used for electrical stimulation (for conductance) and the two other electrodes were used for potential measurement (A and B). 3. Talaporfin sodium was administered intravenously at 10 mg/kg. 4. The irradiation with a band-like laser beam was carried out in a dotted manner between electrodes for potential measurement 30 minutes after administration to perform photodynamic therapy. 5. The potential of an electrode for potential measurement B was measured during laser beam irradiation. 6. […]

C=Cc1c(C)c2cc3nc(c(CC(=O)N[C@@H](CC(=O)O)C(=O)O)c4[nH]c(cc5nc(cc1[nH]2)C(C)=C5CC)c(C)c4C(=O)O)[C@@H](CCC(=O)O)[C@@H]3C [Talaporfin sodium, talaporfin sodium]
electric conductivity of cardiac muscle tissue at the site irradiated with light after photodynamic therapy [1]: electric conductivity of cardiac muscle tissue was lost
delay of electric conduction at electrode B after light irradiation [2]: approximately 35.5 ms
